The record followed here is patent publication US4661297A, “Basic ethers of 7-oxo-7H-benzo(c) fluorene and a process for their production” (SPOFA, spojene podniky pro zdravotnickou vyrobu, priority 1980, dated 1987).

pIC50: −log10 of the molar value. Counter-ions that a name gives are not always drawn. Like-named read-outs stand apart in the source and are kept apart here. Numbered stars: 1 amine (or outer) side, 2 acyl side, 3 side chain; on linkers, the order of the positions; unused ones are H or OH. Bridge positions count the residues as written; N and C are the ends. Square brackets hold non-standard residues; d marks the D form. Peptide text beside a SMILES is read from it. I, II: the chains in the order shown. Actinocin(9to1) = Cc1c2oc3c(C)ccc(C(=O)[*:1])c3nc-2c(C(=O)[*:2])c(N)c1=O; NMeV = CN[C@H](C(=O)O)C(C)C; Sar = CNCC(=O)O

Data set [1] concerns DNA, RNA and protein biosynthesis. The data set can be described thus: Effect on DNA, RNA and protein biosynthesis (substrate incorporation). Format: cell-based. The text has this: (§1) Thus, by way of exemplification, the IC^50 values (inhibitory concentration which lowered the initial rate of ^14 C incorporation to 50% of control) are shown in Table VI, below (Yoshida's Tumor, (U-^14 C) amino acid mixture)
The foregoing data clearly indicate that the compounds of the invention are potent inhibitors of DNA, RNA and protein biosynthesis. This is of significance because the suppression of tumor cells in a host is attained by inhibition of the biosynthesis of DNA, RNA and proteins.

Data set [2] concerns Ehrlich's ascitic carcinoma. Briefly: Incorporation of 14C-adenine and 14C-valine into cellular fraction of Ehrlich's ascitic carcinoma in vitro. The format is cell-based, mouse. Conditions: for Radioactivity incorporation, adenine: control 1060 cpm; for Radioactivity incorporation, valine: control 2455 cpm; for activity at 75 µM / activity at 150 µM / activity at 300 µM / activity at 600 µM / pIC50 / activity at 37.5 µM: Mus musculus, Ehrlich; for pIC50: in vitro. The text has this:
In Table 4, the effect of Tiloron (NSC 143969; 2,7-bis-[2-(diethylamino)ethoxy]fluorene-9-one) and 5-(2-dimethylaminoethoxy)-7-oxo-7H-benzo(c) fluorene hydrochloride are compared on incorporation of ^14 C-adenine and ^14 C-valine with the cellular fraction of Ehrlich's ascitic carcinoma (insoluble in trichloacetic acid). The tests in vitro reveal that the composition of the invention was more than 10 times as effective as Tiloron. The inhibition of incorporation of adenine and valine into the used system of tumor cells is considered as an indication of an anti-tumorous, cytostatic action. This biological activity of the described compound is considerably greater than that of its congener Tiloron. (See also Table 4.)
Effects of Tiloron and substance 13468 on incorporation of ^14
C-adenine and ^14 C-valine
into cellular fraction of Ehrlichs ascitic carcinoma, insoluble in
in vitro. Radioactivity incorporation expressed in cpm.
IC50 = concentration inhibiting incorporation by 50 percent.

Data set [3] deals with Yoshida's Tumor. The data set can be described thus: Inhibition of incorporation of labelled substrates in Yoshida's tumor. The format is cell-based. The note with it: Rattus norvegicus, (U-14C) amino acid mixture, Table VI, read-out: IC50 (concentration lowering initial rate of 14C incorporation to 50% of control).
From the text: Tumor growth may be observed clinically or in experiments in vivo, that is, with experimental animals, or in vitro, for example, in tissue cultures prepared from tumors. Assessment of tumor growth may be effected by measuring the weight of the tumor mass or, more effectively, by measuring the radioactivity after incorporation therein of certain substances of natural origin such as amino acids, adenine, thymidine and the like labelled with radioactive atoms such as ^14 C, ^3 H, etc.
as §1
The ^IC 50 values of compound 13468 are also shown in Table VII with varying substrates.

Data set [4] has as its system La leukaemia. Briefly: Effect on course of transplanted La leukaemia in mice. Format: in vivo, mouse (C57 Bl). The note with it: s.c. 1×300 mg/kg, day 3; significant (&). The text has this: (§2) The therapeutic effect of the described compounds on transplanted tumors in experimental animals is shown in Tables 1-3, on the following five pages.
(§3) &=statistically significant differences versus control at P=0.05
La: La leukaemia in mice C57 Bl

The test system of data set [5] is HK: solid tumors, originally spontaneous mammary-gland adenocarcinoma. Briefly: Effect on course of transplanted HK solid mammary-gland adenocarcinoma in mice. The format is in vivo, mouse (H). Conditions: s.c. 8×25 mg/kg, days 5-10,12,13.
From the text: as §2, §3
HK: Solid tumors, originally spontaneous mammary-gland adenocarcinoma in H mice

Data set [6] deals with Yoshida's ascitic tumor. Briefly: Effect on course of transplanted Yoshida's ascitic tumor in rats. Format: in vivo, rat (Wistar). The note with it: days 1-5, Tables I and II, significant (&).
From the text: as §2, §3
Y: Yoshida's ascitic tumor in Wistar rats

The subject of data set [7] is L1210 leukaemia. The data set can be described thus: Effect on course of transplanted L1210 leukaemia in mice. Format: in vivo, mouse (hybrid DBA/H). The note with it: s.c. 1×250 mg/kg, day 1; significant (&).
From the text: as §2, §3
L1210 : Leukaemia growing in the form of ascitic tumors in hybrid DBA/H mice

A short description of data set [8]: Acute toxicity in mice. Conditions: mouse, in vivo, sc; subcutaneously; mice S, males 22-24 gram. The source says:
The anti-tumor compounds described herein have also been studied from the standpoint of toxicity and the conclusion drawn that they are not toxic to mammalian hosts. The toxicological data set forth in Table IX, below, supports this conclusion.

One may read the IC50 as the concentration needed to halve the response being measured. Read a high IC50 as a need for much substance. The term LD50 denotes the dose at which mortality reaches 50%.

Consider `Cc1c2oc3c(C)ccc(C(=O)N[C@@H]4C(=O)N[C@H](C(C)C)C(=O)N5CCC[C@H]5C(=O)N(C)CC(=O)N(C)[C@@H](C(C)C)C(=O)O[C@@H]4C)c3nc-2c(C(=O)N[C@@H]2C(=O)N[C@H](C(C)C)C(=O)N3CCC[C@H]3C(=O)N(C)CC(=O)N(C)[C@@H](C(C)C)C(=O)O[C@@H]2C)c(N)c1=O` [Actinomycin D] (I: T[dV]P[Sar][NMeV] / II: T[dV]P[Sar][NMeV]; ester I:1-I:C, II:1-II:C; linker I:N-II:N via Actinocin(9to1)), for which the IC50 in data set [1] (substrate (6-3H)uridine) came to 1.7 µg/mL.

As to `Nc1ccn([C@@H]2O[C@H](CO)[C@@H](O)[C@@H]2O)c(=O)n1` [Cytosine arabinoside], the pIC50 is 5.70 in data set [1] (substrate (thymine-U-14C)-thymidine) and 3.37 in data set [1] (substrate L-(U-14)amino-acid).

On to `CCN(CC)CCOc1ccc2c(c1)C(=O)c1cc(OCCN(CC)CC)ccc1-2` [Tiloron, 2,7-bis-[2-(diethylamino)ethoxy]fluorene-9-one], for which the “Radioactivity incorporation, adenine” value is 1252 cpm in data set [2] (75 μM); 1096 cpm in data set [2] (150 μM); 979 cpm in data set [2] (300 μM); 563 cpm in data set [2] (600 μM); 1160 cpm in data set [2] (37,5 μM). The “Radioactivity incorporation, valine” value is listed as 2374 cpm in data set [2] (75 μM); 2247 cpm in data set [2] (150 μM); 2443 cpm in data set [2] (300 μM); 1944 cpm in data set [2] (600 μM); 2395 cpm in data set [2] (37,5 μM). For the same molecule, the activity at 75 µM in data set [2] (75 μM, read-out: Incorporation of adenine relative to control (0 μM = 100%)) stood at 118%; in data set [2] (75 μM, read-out: Incorporation of valine relative to control (0 μM = 100%)) it was 97%. In addition, the activity at 150 µM in data set [2] (150 μM, read-out: Incorporation of adenine relative to control (0 μM = 100%)) was found to be 103%; in data set [2] (150 μM, read-out: Incorporation of valine relative to control (0 μM = 100%)), 92%. Besides, the activity at 300 µM in data set [2] (300 μM, read-out: Incorporation of adenine relative to control (0 μM = 100%)) came to 92%; in data set [2] (300 μM, read-out: Incorporation of valine relative to control (0 μM = 100%)) it was 100%. The activity at 600 µM in data set [2] (600 μM, read-out: Incorporation of adenine relative to control (0 μM = 100%)) came to 53%; in data set [2] (600 μM, read-out: Incorporation of valine relative to control (0 μM = 100%)), 79%. The pIC50 in data set [2] (14C-adenine, read-out: IC50 (concentration inhibiting incorporation by 50 percent), adenine) is 3.22; in data set [2] (14C-valine, read-out: IC50 (concentration inhibiting incorporation by 50 percent), valine) it was 3.22; in data set [3], 3.81. Also, the activity at 37.5 µM was 109% in data set [2] (37,5 μM, read-out: Incorporation of adenine relative to control (0 μM = 100%)) and 98% in data set [2] (37,5 μM, read-out: Incorporation of valine relative to control (0 μM = 100%)).

Turning to `CN(C)CC(C)(C)COc1cc2c(c3ccccc13)-c1ccccc1C2=O` [compound 13467, hydrochloride], the results for the “Survival time of animals with respect to median” value in data set [4] and in data set [7] were 186% and 135%, respectively. The “Survival time of animals with respect to geom. mean” value in data set [5] came out at 89%; in data set [6] (o. (oral) 5×100 mg/kg), 256%; in data set [6] (s.c. 5×50 mg/kg), 232%. Besides, the “Relative tumour size (% of control value)” value in data set [5] (assessed day 14, significant (&)) worked out at 45%. The pIC50 in data set [3] was 4.00. Besides, the 50% lethal dose (LD50) in data set [8] amounted to 550 mg/kg.

`O=NN(CCCl)C(=O)NC1CCCCC1` [CCNU]: the pIC50 in data set [1] (substrate L-(U-14C)amino-acid mixture) is 4.35.
